# Reference: patent US20250186388A1, “ACTIVE SUBSTANCES FOR MEDICAL USE” (INFLAMED PHARMA GMBH, priority 2020, published 2025)
# Structures can show the parent of a compound that is named as a salt.
# Assays:
# [1] = Solubility in octanol (content in the organic phase by UV/VIS spectroscopy, pH values); format: physicochemical; conditions: for pH value: solubility test in octanol
# Experimental: Solubility tests were carried out in octanol and the content in the organic phase was investigated by UV/VIS spectroscopy and the pH values.
# [2] = system: rabbits incubated with E. coli; conditions: cited from earlier work
# [3] = rabbits incubated with E. coli, lidocaine administration
smiles,measurement,setting,value
CCN(CC)CCOC(=O)c1ccc(N)cc1 [Procaine hydrochloride],"Content (solubility in octanol, content in the organic phase)",[1],8%
same,pH value,[1],4.5
"CCN(CC)CCOC(=O)c1ccc(N)cc1 [Procaine, 4-aminobenzoic acid-2-(N,N-diethylamino)ethyl ester]","Content (solubility in octanol, content in the organic phase)",[1],completely dissolved (100%)
same,pH value,[1],8.5
CCN(CC)CC(=O)Nc1c(C)cccc1C [lidocaine],incidence of pulmonary oedema,[2]; compared to a comparison group,reduced incidence
same,albumin content in the bronchoalveolar lavage,[2]; lidocaine group,lower
same,leucocytes in the bronchoalveolar lavage,[2]; lidocaine group,fewer
same,"haemorrhages, alveolar septal thickening and number of inflammatory cells in the alveolar space","[2]; rabbit, in vivo",visibly reduced
same,"lung mechanics (compliance, resistance)",[2]; [3],improved
same,paO2,[2]; [3],increase
